Data published in patent US20150265691A1 (priority 2006, published 2015).
pIC50: −log10 of the molar value. Several values for one entry are separate records, joined by “and”; a condition that tells them apart may be missing. Equal entries are not always repeated.

Assays:
Format in all cases: binding
[1] = system: rabbit anti-B. anthracis spore polyclonal IgG antibodies
[2] = system: rabbit anti-anthrax spore IgG
[3] = system: rabbit anti-B. anthracis spore polyclonal IgG antibodies; remark: listed apart in the source
[4] = system: rabbit anti-anthrax spore IgG; remark: listed apart in the source

Row | SMILES | IgG signal detected by glycan arrays (n = 3) Mean [1] | antibody reactivity detected by glycan arrays [1] | I^50 [2] | IgG reactivities (Ratio of Sg./bg.) Mean [3] | pIC50 [4] | relative inhibiting powers [4] | blocking of antibody reactivity with anthrose-containing tri- and tetra-saccharides [3] | inhibition of other antibody reactivities: binding to isolichenin and Pn 23 polysaccharide [3]
1 | COC(=O)CCCCCO[C@H]1O[C@@H](C)[C@H](O)[C@@H](O)[C@H]1O[C@@H]1O[C@@H](C)[C@H](O)[C@@H](O[C@@H]2O[C@@H](C)[C@H](O)[C@@H](O[C@@H]3O[C@H](C)[C@@H](NC(=O)CC(C)(C)O)[C@H](O)[C@H]3OC)[C@H]2O)[C@H]1O [Saccharide 4, 5-(Methoxycarbonyl)pentyl 4-(3-hydroxy-3-methylbutanamido)-2-O-methyl-4,6-dideoxy-β-D-glucopyranosyl-(1→3)-α-L-rhamnopyranoyl-(1→3)-α-L-rhamnopyranosyl-(1→2)-β-L-rhamnopyranoside] | 5.16 | significant amounts of IgG antibodies | 0.23 nmol |  |  |  |  | 
2 | COC(=O)CCCCCO[C@@H]1O[C@@H](C)[C@H](O)[C@@H](O)[C@H]1O[C@@H]1O[C@@H](C)[C@H](O)[C@@H](O[C@@H]2O[C@@H](C)[C@H](O)[C@@H](O)[C@H]2O)[C@H]1O [Saccharide 17, 5-(Methoxycarbonyl)pentyl α-L-rhamnopyranosyl-(1→3)-α-L-rhamnopyranosyl-(1→2)-α-L-rhamnopyranoside] | 0.98 |  |  | 1.04 and 0.97 and 1.00 and 0.99 |  |  |  | 
3 | COC(=O)CCCCCO[C@@H]1O[C@@H](C)[C@H](O)[C@@H](O)[C@H]1O[C@@H]1O[C@@H](C)[C@H](O)[C@@H](O[C@@H]2O[C@@H](C)[C@H](O)[C@@H](O[C@@H]3O[C@H](C)[C@@H](NC(=O)CC(C)(C)O)[C@H](O)[C@H]3OC)[C@H]2O)[C@H]1O [Saccharide 5, 5-(Methoxycarbonyl)pentyl 4-(3-hydroxy-3-methylbutanamido)-2-O-methyl-4,6-dideoxy-β-D-glucopyranosyl-(1→3)-α-L-rhamnopyranoyl-(1→3)-α-L-rhamnopyranosyl-(1→2)-α-L-rhamnopyranoside] | 5.19 | significant amounts of IgG antibodies | 0.18 nmol |  |  |  |  | 
4 | COC(=O)CCCCCO[C@@H]1O[C@H](C)[C@@H](NC(=O)CC(C)(C)O)[C@H](O)[C@H]1OC [Saccharide 1, 5-(Methoxycarbonyl)pentyl 4-(3-hydroxy-3-methylbutanamido)-2-O-methyl-4,6-dideoxy-β-D-glucopyranoside] | 1.44 | marginally reactive | 7.3 nmol |  | 9.16 | 43.3 | blocked the antibody reactivity | no significant inhibition
5 | COC(=O)CCCCCO[C@@H]1O[C@@H](C)[C@H](O)[C@@H](O[C@@H]2O[C@H](C)[C@@H](NC(=O)CC(C)(C)O)[C@H](O)[C@H]2OC)[C@H]1O [Saccharide 2, 5-(Methoxycarbonyl)pentyl 4-(3-hydroxy-3-methylbutanamido)-2-O-methyl-4,6-dideoxy-β-D-glucopyranosyl-(1→3)-α-L-rhamnopyranoside] | 1.65 | marginally reactive |  |  | 10.72 | 1.18 |  | 
